# According to patent US20240050428A1 (Cullgen (Shanghai), Inc., priority 2020, published 2024):
# Where two headings read alike, the source gives them in different places.
# Legend:
# MOLM-13 cells = assay: Cell viability assay (CellTiter-Glo) in MOLM-13 cells, alone or with gilteritinib; format: cell-based; conditions: Homo sapiens, MOLM-13 cells, three days, CellTiter-Glo
# MV4;11 cells = assay: Cell viability assay (CellTiter-Glo) in MV4;11 cells, alone or with gilteritinib; format: cell-based; conditions: Homo sapiens, MV4;11 cells, three days, CellTiter-Glo, read-out: MV4
# [1] = MOLM-13, 72 h, compound alone (without gilteritinib), read-out: MOLM-13 IC50
# [2] = MOLM-13, 72 h, with gilteritinib 20 nM, read-out: MOLM-13 IC50 gilteritinib
# [3] = MV4-11, 72 h, compound alone (without gilteritinib), 11 IC50
# [4] = MV4-11, 72 h, with gilteritinib 10 nM, 11 IC50 gilteritinib
# [5] = 72 h, compound alone (without gilteritinib), read-out: MOLM-13 IC50
# [6] = 72 h, with gilteritinib 20 nM, read-out: MOLM-13 IC50 gilteritinib
# [7] = 72 h, compound alone (without gilteritinib), 11 IC50
# [8] = 72 h, with gilteritinib 10 nM, 11 IC50 gilteritinib
SMILES,IC50 (MOLM-13 cells; [1]),IC50 (MOLM-13 cells; [2]),IC50 (MV4;11 cells; [3]),IC50 (MV4;11 cells; [4]),IC50 (MOLM-13 cells; [5]),IC50 (MOLM-13 cells; [6]),IC50 (MV4;11 cells; [7]),IC50 (MV4;11 cells; [8])
"CN(c1ccccc1)C1CN(C(=O)CCCCCNc2ccc3c(c2)C(=O)N(C2CCC(=O)NC2=O)C3=O)C1 (centres unmarked) [GS-337, 2-(2,6-Dioxopiperidin-3-yl)-5-((6-(3-(methyl(phenyl)amino)azetidin-1-yl)-6-oxohexyl)amino)isoindoline-1,3-dione]",> 1000 nM,100 to 1000 nM,> 1000 nM,> 1000 nM,,,,
"O=C1CCC(N2C(=O)c3ccc(NCCCCCCn4cc(-c5cnc6ccccc6n5)cn4)cc3C2=O)C(=O)N1 (centres unmarked) [GS-339, 2-(2,6-Dioxopiperidin-3-yl)-5-((6-(4-(quinoxalin-2-yl)-1H-pyrazol-1-yl)hexyl)amino)isoindoline-1,3-dione]",> 1000 nM,10 to 100 nM,100 to 1000 nM,< 10 nM,,,,
"O=C1CCC(N2C(=O)c3ccc(CNC(=O)C(F)(F)c4cccc(-n5cc(-c6cnc7ccccc7n6)cn5)c4)cc3C2=O)C(=O)N1 (centres unmarked) [GS-340, N-((2-(2,6-Dioxopiperidin-3-yl)-1,3-dioxoisoindolin-5-yl)methyl)-2,2-difluoro-2-(3-(4-(quinoxalin-2-yl)-1H-pyrazol-1-yl)phenyl)acetamide]",> 1000 nM,> 1000 nM,100 to 1000 nM,> 1000 nM,,,,
"O=C1CCC(N2C(=O)c3ccc(NC(=O)COCC(=O)N4CCC(n5cc(-c6cnc7ccccc7n6)cn5)CC4)cc3C2=O)C(=O)N1 (centres unmarked) [GS-342, N-(2-(2,6-Dioxopiperidin-3-yl)-1,3-dioxoisoindolin-5-yl)-2-(2-oxo-2-(4-(4-(quinoxalin-2-yl)-1H-pyrazol-1-yl)piperidin-1-yl)ethoxy)acetamide]",> 1000 nM,> 1000 nM,> 1000 nM,> 1000 nM,,,,
O=C1CCC(N2C(=O)c3ccc(NCCCN4CCC(n5cc(-c6cnc7ccccc7n6)cn5)CC4)cc3C2=O)C(=O)N1 (centres unmarked) [GS-343],100 to 1000 nM,10 to 100 nM,> 1000 nM,> 1000 nM,,,,
"O=C(CN1CC(N2CCN(c3ccccn3)CC2)C1)NCc1ccc2c(c1)C(=O)N(C1CCC(=O)NC1=O)C2=O (centres unmarked) [GS-345, N-((2-(2,6-Dioxopiperidin-3-yl)-1,3-dioxoisoindolin-5-yl)methyl)-2-(3-(4-(pyridin-2-yl)piperazin-1-yl)azetidin-1-yl)acetamide]",> 1000 nM,> 1000 nM,> 1000 nM,> 1000 nM,,,,
"O=C1CCC(N2C(=O)c3ccc(NCCCN4CCCC(n5cc(-c6cnc7ccccc7n6)cn5)C4)cc3C2=O)C(=O)N1 (centres unmarked) [GS-347, 2-(2,6-Dioxopiperidin-3-yl)-5-((3-(3-(4-(quinoxalin-2-yl)-1H-pyrazol-1-yl)piperidin-1-yl)propyl)amino)isoindoline-1,3-dione]",> 1000 nM,10 to 100 nM,> 1000 nM,> 1000 nM,,,,
"O=C1CCC(N2C(=O)c3ccc(NCCCCCC(=O)N4CCC(F)(c5ccccc5)CC4)cc3C2=O)C(=O)N1 (centres unmarked) [GS-348, 2-(2,6-Dioxopiperidin-3-yl)-5-((6-(4-fluoro-4-phenylpiperidin-1-yl)-6-oxohexyl)amino)isoindoline-1,3-dione]",10 to 100 nM,< 10 nM,10 to 100 nM,< 10 nM,,,,
"O=C1CCC(N2C(=O)c3ccc(NCCNc4cccc(N5CCC(n6cc(-c7cnc8ccccc8n7)cn6)CC5)c4)cc3C2=O)C(=O)N1 (centres unmarked) [GS-351, 2-(2,6-Dioxopiperidin-3-yl)-5-((2-((3-(4-(4-(quinoxalin-2-yl)-1H-pyrazol-1-yl)piperidin-1-yl)phenyl)amino)ethyl)amino)isoindoline-1,3-dione]",,,,,10 to 100 nM,< 10 nM,10 to 100 nM,10 to 100 nM
"O=C1CCC(N2C(=O)c3ccc(NCCNc4cccc(-n5cc(-c6cnc7ccccc7n6)cn5)c4)cc3C2=O)C(=O)N1 (centres unmarked) [GS-353, 2-(2,6-Dioxopiperidin-3-yl)-5-((2-((3-(4-(quinoxalin-2-yl)-1H-pyrazol-1-yl)phenyl)amino)ethyl)amino)isoindoline-1,3-dione]",,,,,> 1000 nM,10 to 100 nM,100 to 1000 nM,10 to 100 nM
"O=C1CCC(N2C(=O)c3ccc(OCCCCCCn4cc(-c5cnc6ccccc6n5)cn4)cc3C2=O)C(=O)N1 (centres unmarked) [GS-354, 2-(2,6-Dioxopiperidin-3-yl)-5-((6-(4-(quinoxalin-2-yl)-1H-pyrazol-1-yl)hexyl)oxy)isoindoline-1,3-dione]",> 1000 nM,> 1000 nM,> 1000 nM,> 1000 nM,,,,
"O=C1CCC(N2C(=O)c3ccc(NCCNc4cccc(-n5cc(-c6cnc7cccc(Br)c7n6)cn5)c4)cc3C2=O)C(=O)N1 (centres unmarked) [GS-357, 5-((2-((3-(4-(8-Bromoquinoxalin-2-yl)-1H-pyrazol-1-yl)phenyl)amino)ethyl)amino)-2-(2,6-dioxopiperidin-3-yl)isoindoline-1,3-dione]",,,,,10 to 100 nM,10 to 100 nM,10 to 100 nM,10 to 100 nM
"O=C1CCC(N2C(=O)c3ccc(C4CCN(CCCn5cc(-c6cnc7ccccc7n6)cn5)CC4)cc3C2=O)C(=O)N1 (centres unmarked) [GS-358, 2-(2,6-Dioxopiperidin-3-yl)-5-(1-(3-(4-(quinoxalin-2-yl)-1H-pyrazol-1-yl)propyl)piperidin-4-yl)isoindoline-1,3-dione]",,,,,> 1000 nM,> 1000 nM,> 1000 nM,> 1000 nM

# Further lines, with some results ahead:
IC50 (MOLM-13 cells; [1]),IC50 (MOLM-13 cells; [2]),IC50 (MV4;11 cells; [3]),IC50 (MV4;11 cells; [4]),SMILES,IC50 (MOLM-13 cells; [5]),IC50 (MOLM-13 cells; [6]),IC50 (MV4;11 cells; [7]),IC50 (MV4;11 cells; [8])
> 1000 nM,> 1000 nM,> 1000 nM,> 1000 nM,"O=C1CCC(N2C(=O)c3ccc(NCCCCCC(=O)N4CC(Nc5ccccc5)C4)cc3C2=O)C(=O)N1 (centres unmarked) [GS-336, 2-(2,6-Dioxopiperidin-3-yl)-5-((6-oxo-6-(3-(phenylamino)azetidin-1-yl)hexyl)amino)isoindoline-1,3-dione]",,,,
100 to 1000 nM,10 to 100 nM,10 to 100 nM,< 10 nM,"COc1ccnc(-c2cnn([C@H]3C[C@H](CCCNc4ccc5c(c4)C(=O)N(C4CCC(=O)NC4=O)C5=O)C3)c2)c1 (stereo partly drawn) [GS-341, 2-(2,6-Dioxopiperidin-3-yl)-5-((3-(trans-3-(4-(4-methoxypyridin-2-yl)-1H-pyrazol-1-yl)cyclobutyl)propyl)amino)isoindoline-1,3-dione]",,,,
> 1000 nM,> 1000 nM,> 1000 nM,> 1000 nM,"O=C1CCC(N2C(=O)c3ccc(NCCCN4CCC(N5CCN(c6ccccn6)CC5)C4)cc3C2=O)C(=O)N1 (centres unmarked) [GS-344, 2-(2,6-Dioxopiperidin-3-yl)-5-((3-(3-(4-(pyridin-2-yl)piperazin-1-yl)pyrrolidin-1-yl)propyl)amino)isoindoline-1,3-dione]",,,,
> 1000 nM,> 1000 nM,> 1000 nM,> 1000 nM,"O=C(CN1CCCC(n2cc(-c3cnc4ccccc4n3)cn2)C1)NCc1ccc2c(c1)C(=O)N(C1CCC(=O)NC1=O)C2=O (centres unmarked) [GS-346, N-((2-(2,6-Dioxopiperidin-3-yl)-1,3-dioxoisoindolin-5-yl)methyl)-2-(3-(4-(quinoxalin-2-yl)-1H-pyrazol-1-yl)piperidin-1-yl)acetamide]",,,,
100 to 1000 nM,10 to 100 nM,10 to 100 nM,10 to 100 nM,"O=C1CCC(N2C(=O)c3ccc(CNC(=O)NC4CCCC(n5cc(-c6cnc7ccccc7n6)cn5)C4)cc3C2=O)C(=O)N1 (centres unmarked) [GS-349, 1-((2-(2,6-Dioxopiperidin-3-yl)-1,3-dioxoisoindolin-5-yl)methyl)-3-(3-(4-(quinoxalin-2-yl)-1H-pyrazol-1-yl)cyclohexyl)urea]",,,,
> 1000 nM,< 10 nM,> 1000 nM,> 1000 nM,"O=C1CCC(N2C(=O)c3ccc(NCCCN4CCCC(N5CCN(c6ccccn6)CC5)C4)cc3C2=O)C(=O)N1 (centres unmarked) [GS-350, 2-(2,6-Dioxopiperidin-3-yl)-5-((3-(3-(4-(pyridin-2-yl)piperazin-1-yl)piperidin-1-yl)propyl)amino)isoindoline-1,3-dione]",,,,
> 1000 nM,100 to 1000 nM,100 to 1000 nM,100 to 1000 nM,"O=C1CCC(N2C(=O)c3ccc(CCCCCCCn4cc(-c5cnc6ccccc6n5)cn4)cc3C2=O)C(=O)N1 (centres unmarked) [GS-352, 2-(2,6-Dioxopiperidin-3-yl)-5-(7-(4-(quinoxalin-2-yl)-1H-pyrazol-1-yl)heptyl)isoindoline-1,3-dione]",,,,
> 1000 nM,100 to 1000 nM,> 1000 nM,10 to 100 nM,"O=C1CCC(N2C(=O)c3ccc(NCCCn4cc(-c5cnc6ccccc6n5)cn4)cc3C2=O)C(=O)N1 (centres unmarked) [GS-355, 2-(2,6-Dioxopiperidin-3-yl)-5-((3-(4-(quinoxalin-2-yl)-1H-pyrazol-1-yl)propyl)amino)isoindoline-1,3-dione]",,,,
> 1000 nM,100 to 1000 nM,100 to 1000 nM,100 to 1000 nM,"O=C1CCC(N2C(=O)c3ccc(NCCCCCn4cc(-c5cnc6ccccc6n5)cn4)cc3C2=O)C(=O)N1 (centres unmarked) [GS-356, 2-(2,6-Dioxopiperidin-3-yl)-5-((5-(4-(quinoxalin-2-yl)-1H-pyrazol-1-yl)pentyl)amino)isoindoline-1,3-dione]",,,,
> 1000 nM,> 1000 nM,> 1000 nM,> 1000 nM,"O=C(CN1CCCC(N2CCN(c3ccccn3)CC2)C1)NCc1ccc2c(c1)C(=O)N(C1CCC(=O)NC1=O)C2=O (centres unmarked) [GS-359, N-((2-(2,6-Dioxopiperidin-3-yl)-1,3-dioxoisoindolin-5-yl)methyl)-2-(3-(4-(pyridin-2-yl)piperazin-1-yl)piperidin-1-yl)acetamide]",,,,
